According to patent US20150258129A1, “Method for Increasing the Activity of Lysosomal Enzymes” (Mount Sinai School of Medicine of New York University, priority 1998, published 2015):
Numbering of substitutions follows the chain as printed. Like-named read-outs stand apart in the source and are kept apart here.

How the values were obtained:
[1] = molecular target: T1, human lysosomal α-Gal A (Homo sapiens, UniProt P06280); assay: In vitro inhibition of α-Gal A (recombinant, expressed in Sf-9 insect cells); type: biochemical; settings: for IC50 / Ki: p-nitrophenyl-α-D-galactopyranoside as substrate; for IC50: pH 4.5; for Ki: read-out: Ki for α-Gal A, from the slope of Lineweaver-Burk plots; for reduction of inhibitory potential / affinity for α-Gal A relative to DGJ: compared with DGJ
T1 construct: made in house; host or cells: Sf-9 insect cells, recombinant baculovirus
T1 sequence (P06280 32-429): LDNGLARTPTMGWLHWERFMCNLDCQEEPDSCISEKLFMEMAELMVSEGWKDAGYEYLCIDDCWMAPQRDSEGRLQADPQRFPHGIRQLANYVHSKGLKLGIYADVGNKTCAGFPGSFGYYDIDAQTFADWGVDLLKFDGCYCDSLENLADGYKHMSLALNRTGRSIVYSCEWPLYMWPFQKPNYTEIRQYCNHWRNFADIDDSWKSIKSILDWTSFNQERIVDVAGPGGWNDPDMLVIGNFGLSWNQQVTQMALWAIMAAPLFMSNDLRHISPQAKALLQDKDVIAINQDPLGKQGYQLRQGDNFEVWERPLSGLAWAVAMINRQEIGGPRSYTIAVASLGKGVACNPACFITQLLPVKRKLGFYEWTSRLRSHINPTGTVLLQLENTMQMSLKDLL

[2] = molecular target: T2, mutant α-Gal A (R301Q) (Homo sapiens, UniProt P06280, R301Q); assay: Intracellular enhancement of α-Gal A activity in Fabry lymphoblasts; type: cell-based; design: endogenous in cells; host or cells: Epstein-Barr virus-transformed lymphoblasts from a Fabry patient (R301Q); settings: for intracellular α-Gal A activity in Fabry lymphoblasts (summary): concentration ranges of 10-1000 μM; for increase of α-Gal A enzyme activity in R301Q lymphoblasts: inhibitor at 100 μM; for enhancement of α-Gal A activity in R301Q lymphoblasts: inhibitor at 1000 μM
T2 sequence (P06280 32-429 R301Q): T1 sequence (P06280 32-429) with R270Q
Protocol: FIG. 4B depicts results in which each inhibitor was added to the culture medium of R301Q lymphoblasts at a concentration of 100 μM. Cells were subsequently incubated for 4 days. After being washed twice with phosphate-buffered saline, the intracellular enzyme activity was determined with 4-MU-α-Gal as the substrate.
R301Q lymphoblasts were cultured with DGJ (4) ([…]), α-allo-HNJ (9) (▪), α-galacto-HNJ (10) (▴), or β-1-C-butyl-DGJ (16) (♦) at 1-1000 μM for 4 days before being collected for enzyme assay.
In FIG. 6B, R301Q lymphoblasts were cultured with calystegine B2 (18) and the results are shown therein. In FIG. 6C, R301Q lymphoblasts were cultured with N-methyl calystegine A3 (19) and the results are shown therein. In FIG. 6D R301Q lymphoblasts were cultured with N-methyl calystegine B2 (20) at 100-1000 μM for 4 days before being collected for enzyme assay and the results are shown therein.
The Epstein-Barr virus-transformed lymphoblast lines from a normal adult and a Fabry patient with R301Q mutation in α-Gal A (38) were cultured in RPMI-1640 medium (Nissui Pharmaceutical Co., Tokyo, Japan) supplemented with 10% fetal calf serum (FCS) at 37° C. under 5% CO2. Human fibroblasts from Gaucher and GM1-gangliosidosis patients were cultured in McCoy 5A medium supplemented with 10% FCS at 37° C. under 5% CO2.
Cells were cultured in the presence or absence of inhibitor for 4 days. After being washed twice with phosphate-buffered saline (PBS), the cells were harvested and homogenized in 200 μl of H2O, and 10 μl of the supernatant obtained by centrifugation at 10,000 g was incubated at 37° C. with 50 μl of the substrate solution composed by 6 mM 4-methylumbelliferyl α-D-galactoside (4-MU-α-Gal) and 90 mM N-acetylgalactosamine in 0.1 M citrate buffer (pH 4.5) for enzyme assay. One unit of intracellular enzyme activity was defined as one nmol of 4-methylumbelliferone released per hour at 37° C.

[3] = molecular target: human β-glucocerebrosidase (Homo sapiens, UniProt P04062); assay: In vitro inhibition of human β-glucocerebrosidase; type: biochemical; settings: 0.1M citrate buffer (pH 5.2), 4-MU-β-Glu as substrate
[4] = IC30 and (Ki)*: IC50 values (inhibitor concentration giving 50% inhibition) for α-Gal A
[5] = read-out: IC30 and (Ki)*: IC50 values (inhibitor concentration giving 50% inhibition) for α-Gal A

Chain of human β-glucocerebrosidase (P04062 40-536): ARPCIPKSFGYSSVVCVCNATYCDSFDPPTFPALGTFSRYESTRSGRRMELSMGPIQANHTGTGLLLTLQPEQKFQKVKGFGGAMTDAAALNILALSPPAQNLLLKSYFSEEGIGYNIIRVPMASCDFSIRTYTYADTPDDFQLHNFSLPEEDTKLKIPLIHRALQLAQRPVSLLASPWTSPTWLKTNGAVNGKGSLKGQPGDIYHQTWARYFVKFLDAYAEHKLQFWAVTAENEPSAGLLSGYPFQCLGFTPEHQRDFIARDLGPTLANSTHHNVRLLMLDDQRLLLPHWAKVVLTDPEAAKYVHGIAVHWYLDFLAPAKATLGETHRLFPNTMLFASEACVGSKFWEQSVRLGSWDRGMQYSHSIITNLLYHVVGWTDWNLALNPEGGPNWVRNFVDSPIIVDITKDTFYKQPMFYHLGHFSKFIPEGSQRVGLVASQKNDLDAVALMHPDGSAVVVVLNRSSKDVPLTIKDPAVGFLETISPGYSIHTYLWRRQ

CCN1CC(O)C(O)C(O)C1CO (stereo not drawn) [compound 12, N-Ethyl-1-deoxygalactonojirimycin]
IC50 [1, 4]: 306 µM

OCC1NCC(O)C(O)C1O (stereo not drawn) [compound 2, 1-Deoxymannojirimycin]
inhibition of α-Gal A (in words) [1]: no appreciable inhibition even at 1000 μM

OC[C@H]1N[C@H](CO)[C@@H](O)C(O)[C@H]1O (stereo partly drawn) [compound 9, α-homoallonojirimycin]
intracellular α-Gal A activity in Fabry lymphoblasts (summary) [2]: effectively increase
increase of α-Gal A enzyme activity in R301Q lymphoblasts ([2]; 4 days): 2.4 fold
enhancement of α-Gal A activity in R301Q lymphoblasts ([2]; 4 days): 3.9 fold
inhibition mode toward α-Gal A (Lineweaver-Burk plots) [1]: competitive inhibitors
Ki [1]: 2.6 µM
IC50 [1, 5]: 4.3 µM

OCC1NC(CO)C(O)C(O)C1O (stereo not drawn) [compound 8, α-homomannojirimycin]
inhibition of α-Gal A (in words) [1]: weak inhibitor
IC50 [1, 4]: 464 µM

OCC1NCC(O)C(O)C1O (stereo not drawn) [compound 3, 1-Deoxy-3-epi-nojirimycin]
inhibition of α-Gal A (in words) [1]: no appreciable inhibition even at 1000 μM

O[C@@H]1[C@H](O)[C@H]2CC[C@](O)(N2)[C@H]1O [compound 25, calystegine B4]
IC50 [3]: 82 µM

O[C@@H]1[C@@H](O)[C@H]2CC[C@](O)(N2)[C@@H]1O [compound 24, calystegine B3]
IC50 [3]: 76 µM

CCCN1CC(O)C(O)C(O)C1CO (stereo not drawn) [compound 13, N-Propyl-1-deoxygalactonojirimycin]
IC50 [1, 4]: 301 µM

OCC1NC(CO)C(O)C(O)C1O (stereo not drawn) [compound 7, α-Homonojirimycin]
inhibition of α-Gal A (in words) [1]: not an inhibitor
IC50 [1, 4]: > 1000 µM

OC[C@H]1NC[C@H](O)[C@H](O)[C@H]1O [compound 5, 1-deoxy-3,4-diepi-nojirimycin]
inhibition of α-Gal A (in words) [1]: no appreciable inhibition even at 1000 μM

O[C@@H]1[C@@H](O)C[C@]2(O)CC[C@H]1N2 [compound 22, calystegine A5]
IC50 [3]: 31 µM

CN1CC(O)C(O)C(O)C1CO (stereo not drawn) [compound 11, N-Methyl-1-deoxygalactonojirimycin]
IC50 [1, 4]: 96 µM

DNJ bisulfite [compound 32]
IC50 [3]: 28 µM

OCC1NCCC(O)C1O (stereo not drawn) [compound 6, 1,2-dideoxy-galactonojirimycin]
IC50 [1, 4]: 250 µM
reduction of inhibitory potential / affinity for α-Gal A relative to DGJ [1]: over 6000 fold

OCCN1CC(O)C(O)C(O)C1CO (stereo not drawn) [compound 15, N-Hydroxyethyl-1-deoxygalactonojirimycin]
IC50 [1, 4]: 520 µM

OC[C@H]1NC[C@@H](O)[C@@H]1O [compound 28, 1,4-dideoxy-1,4-imino-D-arabinitol]
IC50 [3]: 160 µM

OC[C@H]1N[C@H](CO)[C@H](O)C(O)[C@H]1O (stereo partly drawn) [compound 10, α-Homogalactonojirimycin]
intracellular α-Gal A activity in Fabry lymphoblasts (summary) [2]: effectively increase
increase of α-Gal A enzyme activity in R301Q lymphoblasts ([2]; 4 days): 5.2 fold
enhancement of α-Gal A activity in R301Q lymphoblasts ([2]; 4 days): 12.5 fold
inhibition mode toward α-Gal A (Lineweaver-Burk plots) [1]: competitive inhibitors
reduction of inhibitory potential / affinity for α-Gal A relative to DGJ [1]: approximately 4 fold
Ki [1]: 0.17 µM
IC50 [1, 5]: 0.21 µM

CN1C2CCC1(O)C(O)C(O)C2 (stereo not drawn) [compound 19, N-methyl calystegine A3]
intracellular α-Gal A activity in Fabry lymphoblasts (summary) [2]: effectively increase
α-Gal A activity in R301Q lymphoblasts with increasing concentration of calystegine compound ([2]; range 100-1000 μM, 4 days, FIG. 6): elevated with increasing concentration
